From EP3991726A1, “ANTI-INFLAMMATORY COMPOSITION COMPRISING PALMITOYLETHANOLAMIDE AND PHYCOCYANIN” (priority 2020, dated 2022)

What was measured:
[1] = tested on: human pulmonary epithelium BEAS-2B; assay: MTT test for cytotoxicity; assay type: cell-based; settings: tested in the range 10 nM - 1 µM
Protocol: (§1) In a model of human pulmonary epithelium BEAS-2B (ATCC - CRL-9609), PC and PEA were tested in the range 10 nM - 1 µM.

[2] = tested on: human pulmonary epithelium BEAS-2B; assay: Cell proliferation by crystal violet colouring; assay type: cell-based; settings: tested in the range 10 nM - 1 µM
Protocol: as §1

[3] = target: T1, COX-2 (human) (Homo sapiens, UniProt P35354); assay: COX-2 (human) Inhibitor Screening Assay Kit, in vitro ELISA method; assay type: biochemical; settings: Cayman Chemical # 701080
T1 construct: purchased Cayman Chemical 701080
T1 sequence (P35354 18-604): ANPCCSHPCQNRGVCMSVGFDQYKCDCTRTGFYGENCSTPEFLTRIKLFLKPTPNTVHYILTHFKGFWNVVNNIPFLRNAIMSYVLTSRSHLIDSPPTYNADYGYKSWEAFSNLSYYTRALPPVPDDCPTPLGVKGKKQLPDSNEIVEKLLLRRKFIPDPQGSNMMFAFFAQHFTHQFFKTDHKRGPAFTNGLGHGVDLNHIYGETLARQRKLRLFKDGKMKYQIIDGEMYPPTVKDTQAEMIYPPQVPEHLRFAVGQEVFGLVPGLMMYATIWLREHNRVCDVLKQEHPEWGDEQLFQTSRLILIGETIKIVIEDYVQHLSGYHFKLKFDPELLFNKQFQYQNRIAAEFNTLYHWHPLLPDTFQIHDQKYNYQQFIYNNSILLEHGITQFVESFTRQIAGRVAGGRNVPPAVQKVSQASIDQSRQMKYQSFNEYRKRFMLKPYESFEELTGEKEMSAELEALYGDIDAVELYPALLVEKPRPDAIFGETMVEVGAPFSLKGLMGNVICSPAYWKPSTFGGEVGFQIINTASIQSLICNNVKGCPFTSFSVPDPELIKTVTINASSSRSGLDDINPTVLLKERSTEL
Text: Measurement of the IC50 in an in vitro test (ELISA method - COX-2 (human) Inhibitor Screening Assay Kit, # 701080, Cayman Chemical) gave the following results.

[4] = tested on: human pulmonary epithelium cell line BEAS-2B; assay: ROS measured as fluorescence emission of intracellular probe DCF-DA after LPS or Poly I:C stimulus; assay type: cell-based; settings: stimulus LPS or PIC, PC and PEA 1 µM for 48h, Figure 1
Protocol: (§2) The cells were treated with PC and PEA 1 µM for 48h. The ROS (which are powerful oxidants) were measured as fluorescence emission of the intracellular probe DCF-DA (dichlorofluorescein diacetate). The toxicity was measured as release of an intracellular enzyme (lactate dehydrogenase LDH) in the extracellular medium; the release is proportional to the toxicity and is measured with a spectrophotometer.

[5] = tested on: human pulmonary epithelium cell line BEAS-2B; assay: Toxicity as lactate dehydrogenase (LDH) release after LPS or Poly I:C stimulus; assay type: cell-based; settings: stimulus LPS or PIC, PC and PEA 1 µM for 48h, Figure 1
Protocol: as §2

[6] = tested on: interleukin 8 (IL-8) transcript; assay: IL-8 transcript by real-time PCR after inflammatory stimulus; assay type: cell-based, human; settings: BEAS-2B, bacterial (LPS) or viral (PIC) stimulus, PC and PEA 1 µM for 24h, Figure 2
Protocol: The cells were treated with PC and PEA 1 µM for 24h. The interleukin 8 (IL-8) transcript was measured by means of real-time PCR.

[7] = tested on: transcripts for subunits 2 and 4 of complex IV of the mitochondrial respiratory chain (COX2 and COX4) and two subunits of the ATP synthase mitochondrial enzyme …; assay: Mitochondrial respiratory chain and ATP synthase transcripts by real-time PCR; assay type: cell-based, human; settings: BEAS-2B, bacterial (LPS) or viral (PIC) stimulus, PC and PEA 1 µM for 24h, Figure 3
Protocol: The cells were treated with PC and PEA 1 µM for 24h. The transcripts for subunits 2 and 4 of complex IV of the mitochondrial respiratory chain (COX2 and COX4) and the transcripts for two subunits of the ATP synthase mitochondrial enzyme (ATP mit and ATP n) were measured by means of real-time PCR.

IC50 [3]: 0.575 µM
Structure (SMILES): CCCCCCCCCCCCCCCC(=O)NCCO [PEA, palmitoylethanolamide]
toxicity (MTT test) [1]: absence of toxicity | effect on cell growth (proliferation, crystal violet) [2]: no effect on cell growth | oxidative stress (ROS, DCF-DA fluorescence) [4]: protect from oxidative stress | toxicity (LDH release in the extracellular medium) [5]: protect from oxidative stress and toxicity | production of inflammatory cytokines (IL-8 transcript) [6]: reduce the production of inflammatory cytokines | activation of the mitochondrial respiratory burst (COX2, COX4, ATP mit, ATP n transcripts) [7]: reduce activation of the mitochondrial respiratory burst
